Experimental data from patent publication US10588316B2 (priority 2015, dated 2020).
“And” between values parts separate entries of the source, which are not always exact repeats. Equal entries are not always repeated. Where two headings read alike, the source gives them in different places.

Legend:
Fusarium graminearum = assay: microbe, parasite or virus in culture; assay type: cell-based; settings: for Median Effective Concentration (EC50) for Growth Inhibition: F.g sensitive strains; for Average Fungal Colony Diameter F.g / Growth Inhibition Rate F.g: sensitive strains
Fusarium asiaticum = assay: microbe, parasite or virus in culture; assay type: cell-based; settings: for Average Fungal Colony Diameter F.a / Growth Inhibition Rate F.a: sensitive strains
[1] = tested on: Fusarium graminearum and Fusarium asiaticum; assay: organism not typed; assay type: cell-based
wheat scab [2] = assay type: in vivo; settings: Preparation 100 g/mu; Jinggangmycin 0, Tebuconazole 20 g ai. agent/mu
wheat scab [3] = assay type: in vivo
leaf blight [4] = assay type: in vivo, wheat
rust [5] = assay type: in vivo, wheat; settings: Preparation 100 (mL/mu); Jinggangmycin 0, Tebuconazole 20 g ai. agent/mu
wheat scab [6] = assay type: in vivo; settings: Preparation 50 g/mu; Tebuconazole 10 g ai. agent/mu
leaf blight [7] = assay type: in vivo, wheat; settings: Preparation 100 (mL/mu); Jinggangmycin 0, Tebuconazole 20 g ai. agent/mu
powdery mildew [8] = assay type: in vivo, wheat
leaf blight [9] = assay type: in vivo, wheat; remark: listed apart in the source
leaf blight [10] = assay type: in vivo, wheat; remark: listed apart in the source
[11] = assay type: in vivo, wheat
[12] = tested on: carbendazim-resistant Fusarium asiaticum; assay: microbe, parasite or virus in culture; assay type: cell-based; settings: for DON Biosynthesis Inhibition Rate / Toxin Production Capability: Jinggangmycin + Tebuconazole 0 + 0.1 μg/ml
powdery mildew [13] = assay type: in vivo, wheat; remark: listed apart in the source
leaf blight [14] = assay type: in vivo, wheat; settings: Preparation 100 g/mu; Jinggangmycin 0, Tebuconazole 20 g ai. agent/mu
rust [15] = assay type: in vivo, wheat; settings: Preparation 100 g/mu; Jinggangmycin 0, Tebuconazole 20 g ai. agent/mu
powdery mildew [16] = assay type: in vivo, wheat; settings: Preparation 100 (mL/mu); Jinggangmycin 0, Tebuconazole 20 g ai. agent/mu
[17] = assay type: in vivo, wheat; remark: listed apart in the source
powdery mildew [18] = assay type: in vivo, wheat; remark: listed apart in the source
wheat scab [19] = assay type: in vivo; remark: listed apart in the source
powdery mildew [20] = assay type: in vivo, wheat; remark: listed apart in the source
rust [21] = assay type: in vivo, wheat
wheat scab [22] = assay type: in vivo; settings: Preparation 100 (mL/mu); Jinggangmycin 0, Tebuconazole 20 g ai. agent/mu
rust [23] = assay type: in vivo, wheat; remark: listed apart in the source
wheat scab [24] = assay type: in vivo; remark: listed apart in the source
rust [25] = assay type: in vivo, wheat; remark: listed apart in the source
powdery mildew [26] = assay type: in vivo, wheat; settings: dosage g ai./mu: c1 Jinggangmycin, c2 Tebuconazole of the line
powdery mildew [27] = assay type: in vivo, wheat; settings: Preparation 100 g/mu; Jinggangmycin 0, Tebuconazole 20 g ai. agent/mu
[28] = Preparation 22.5 g/mu, Tebuconazole 4.5 g ai. agent/mu
[29] = Preparation 30 g/mu, Tebuconazole 6 g ai. agent/mu
[30] = Preparation 15 g/mu, Tebuconazole 3 g ai. agent/mu
[31] = Preparation 37.5 g/mu, Tebuconazole 7.5 g ai. agent/mu
[32] = Preparation 50 g/mu, Tebuconazole 10 g ai. agent/mu
[33] = Tebuconazole 2.0 g ai. agent/mu
[34] = Tebuconazole 4.0 g ai. agent/mu
[35] = Tebuconazole 6.0 g ai. agent/mu
[36] = Tebuconazole 7.5 g ai. agent/mu
[37] = Tebuconazole 8.8 g ai. agent/mu
[38] = Tebuconazole 9.5 g ai. agent/mu
[39] = Tebuconazole 12.0 g ai. agent/mu
[40] = Tebuconazole 15.0 g ai. agent/mu
[41] = Tebuconazole 17.5 g ai. agent/mu
[42] = Tebuconazole 19.0 g ai. agent/mu

Compound: CCOC(=O)C(C#N)=C(N)c1ccccc1 [phenamacril]
- Median Effective Concentration (EC50) for Growth Inhibition (Fusarium graminearum): 0.165 µg/mL
- Median Effective Concentration (EC50) for Growth Inhibition (Fusarium asiaticum; F.a sensitive strains): 0.165 µg/mL

Compound: Tebuconazole
- activity of tebuconazole relative to carbendazim (by EC50) ([1]; sensitive strains): about 4.5 times
- activity of tebuconazole relative to phenamacril (by EC50) ([1]; sensitive strains): about 1.5 times
- inhibition rate on the hyphal growth of the head blight fungi ([1]; tebuconazole 0.1 μg/ml alone): about 50%
- Disease Index Prevention Effect % Head Blight (wheat scab [2]): 80.1%
- Disease Index Prevention Effect % Head Blight (wheat scab [3]; [28]): 48.2%
- Disease Index Prevention Effect % Head Blight (wheat scab [3]; [29]): 53.9%
- Disease Index Prevention Effect % Leaf Blight (leaf blight [4]; [30]): 65.4%
- Disease Index Prevention Effect % Leaf Blight (leaf blight [4]; [31]): 68.5%
- Disease Index Prevention Effect % Leaf Blight (leaf blight [4]; [32]): 64.5%
- Disease Index Prevention Effect % Rust (rust [5]): 82.4%
- Disease Index Prevention Effect % Head Blight (wheat scab [6]): 72.4%
- Disease Index Prevention Effect % Leaf Blight (leaf blight [7]): 83.6%
- Median Effective Concentration (EC50) for Growth Inhibition (Fusarium graminearum): 0.096 µg/mL
- Average Fungal Colony Diameter F.g (Fusarium graminearum; Tebuconazole 0.02 μg/mL): 42 mm
- Growth Inhibition Rate F.g (Fusarium graminearum; Tebuconazole 0.02 μg/mL): 34.2%
- Average Fungal Colony Diameter F.g (Fusarium graminearum; Tebuconazole 0.078 μg/mL): 32 mm
- Growth Inhibition Rate F.g (Fusarium graminearum; Tebuconazole 0.078 μg/mL): 47.5%
- Average Fungal Colony Diameter F.g (Fusarium graminearum; Tebuconazole 0.3125 μg/mL): 21 mm
- Growth Inhibition Rate F.g (Fusarium graminearum; Tebuconazole 0.3125 μg/mL): 72.1%
- Average Fungal Colony Diameter F.g (Fusarium graminearum; Tebuconazole 5.0 μg/mL): 9 mm
- Growth Inhibition Rate F.g (Fusarium graminearum; Tebuconazole 5.0 μg/mL): 88.0%
- Disease Index Prevention Effect % Powdery Mildew (powdery mildew [8]; [30]): 48.7%
- Disease Index Prevention Effect % Powdery Mildew (powdery mildew [8]; [28]): 60.4%
- Disease Index Prevention Effect % Powdery Mildew (powdery mildew [8]; [29]): 64.9%
- Disease Index Prevention Effect % Powdery Mildew (powdery mildew [8]; [31]): 72.4%
- Disease Index Prevention Effect % Leaf Blight (leaf blight [9]; Tebuconazole 6 g ai. agent/mu): 64.5%
- Disease Index Prevention Effect % Leaf Blight (leaf blight [9]; Tebuconazole 9 g ai. agent/mu): 70.1%
- Disease Index Prevention Effect % Leaf Blight (leaf blight [9]; Tebuconazole 15 g ai. agent/mu): 72.4%
- Disease Index Prevention Effect % Leaf Blight (leaf blight [9]; Tebuconazole 21 g ai. agent/mu): 73.5%
- Disease Index Prevention Effect % Leaf Blight (leaf blight [10]; [33]): 14.5%
- Disease Index Prevention Effect % Leaf Blight (leaf blight [10]; [34]): 19.2%
- Disease Index Prevention Effect % Leaf Blight (leaf blight [10]; [35]): 29.5%
- Disease Index Prevention Effect % Leaf Blight (leaf blight [10]; [36]): 71.2%
- Disease Index Prevention Effect % Leaf Blight (leaf blight [10]; [37]): 73.1%
- Disease Index Prevention Effect % Leaf Blight (leaf blight [10]; [38]): 74.2%
- Disease Index Prevention Effect % Leaf Blight (leaf blight [10]; [39]): 76.5%
- Disease Index Prevention Effect % Leaf Blight (leaf blight [10]; [40]): 78.9%
- Disease Index Prevention Effect % Leaf Blight (leaf blight [10]; [41]): 80.3%
- Disease Index Prevention Effect % Leaf Blight (leaf blight [10]; [42]): 81.2%
- Thousand Kernel Weight [11, 30]: 40 g
- Thousand Kernel Weight [11, 31]: 41.5 g
- Thousand Kernel Weight [11, 32]: 40.8 g
- DON Biosynthesis Inhibition Rate ([12]; 7 days): 4.2%
- Toxin Production Capability ([12]; 7 days): 87.42 μgDON/g by dry weight of hyphae
- DON Biosynthesis Inhibition Rate ([12]; 14 days): 0.6%
- Toxin Production Capability ([12]; 14 days): 52.50 μgDON/g by dry weight of hyphae
- inhibitory effect on toxin biosynthesis capability versus blank control ([12]; tebuconazole 0.1 μg/ml, seven and fourteen days): does not have significant inhibitory effects
- Disease Index Prevention Effect % Powdery Mildew (powdery mildew [13]; [33]): 15.4%
- Disease Index Prevention Effect % Powdery Mildew (powdery mildew [13]; [34]): 28.5%
- Disease Index Prevention Effect % Powdery Mildew (powdery mildew [13]; [35]): 36.4%
- Disease Index Prevention Effect % Powdery Mildew (powdery mildew [13]; [36]): 58.2%
- Disease Index Prevention Effect % Powdery Mildew (powdery mildew [13]; [37]): 60.5%
- Disease Index Prevention Effect % Powdery Mildew (powdery mildew [13]; [38]): 65.2%
- Disease Index Prevention Effect % Powdery Mildew (powdery mildew [13]; [39]): 76.5%
- Disease Index Prevention Effect % Powdery Mildew (powdery mildew [13]; [40]): 74.5%
- Disease Index Prevention Effect % Powdery Mildew (powdery mildew [13]; [41]): 76.4%
- Disease Index Prevention Effect % Powdery Mildew (powdery mildew [13]; [42]): 81.2%
- Disease Index Prevention Effect % Leaf Blight (leaf blight [14]): 84.2%
- Disease Index Prevention Effect % Rust (rust [15]): 98.5%
- Disease Index Prevention Effect % Powdery Mildew (powdery mildew [16]): 88.2%
- Thousand Kernel Weight ([17]; Tebuconazole 6 g ai. agent/mu): 40.5 g
- Thousand Kernel Weight ([17]; Tebuconazole 9 g ai. agent/mu): 41.5 g
- Thousand Kernel Weight ([17]; Tebuconazole 15 g ai. agent/mu): 42 g
- Thousand Kernel Weight ([17]; Tebuconazole 21 g ai. agent/mu): 42.7 g
- Disease Index Prevention Effect % Powdery Mildew (powdery mildew [18]; Tebuconazole 6 g ai. agent/mu): 62.4%
- Disease Index Prevention Effect % Powdery Mildew (powdery mildew [18]; Tebuconazole 9 g ai. agent/mu): 70.8%
- Disease Index Prevention Effect % Powdery Mildew (powdery mildew [18]; Tebuconazole 15 g ai. agent/mu): 76.4%
- Disease Index Prevention Effect % Powdery Mildew (powdery mildew [18]; Tebuconazole 21 g ai. agent/mu): 81.6%
- Disease Index Prevention Effect % Head Blight (wheat scab [19]; Tebuconazole 6 g ai. agent/mu): 53.4%
- Disease Index Prevention Effect % Head Blight (wheat scab [19]; Tebuconazole 9 g ai. agent/mu): 65.8%
- Disease Index Prevention Effect % Head Blight (wheat scab [19]; Tebuconazole 15 g ai. agent/mu): 70.4%
- Disease Index Prevention Effect % Head Blight (wheat scab [19]; Tebuconazole 21 g ai. agent/mu): 76.8%
- Disease Index Prevention Effect % Powdery Mildew (powdery mildew [20]; [30]): 68.1%
- Disease Index Prevention Effect % Powdery Mildew (powdery mildew [20]; [31]): 73.5%
- Disease Index Prevention Effect % Powdery Mildew (powdery mildew [20]; [32]): 82.4%
- Disease Index Prevention Effect % Rust (rust [21]; [33]): 18.0%
- Disease Index Prevention Effect % Rust (rust [21]; [34]): 32.1%
- Disease Index Prevention Effect % Rust (rust [21]; [35]): 45.2%
- Disease Index Prevention Effect % Rust (rust [21]; [36]): 71.5%
- Disease Index Prevention Effect % Rust (rust [21]; [37]): 78.4%
- Disease Index Prevention Effect % Rust (rust [21]; [38]): 80.5%
- Disease Index Prevention Effect % Rust (rust [21]; [39]): 81.8%
- Disease Index Prevention Effect % Rust (rust [21]; [40]): 85.6%
- Disease Index Prevention Effect % Rust (rust [21]; [41]): 89.4%
- Disease Index Prevention Effect % Rust (rust [21]; [42]): 92.8%
- Disease Index Prevention Effect % Head Blight (wheat scab [22]): 84.6%
- Disease Index Prevention Effect % Rust (rust [23]; Tebuconazole 6 g ai. agent/mu): 61.5%
- Disease Index Prevention Effect % Rust (rust [23]; Tebuconazole 9 g ai. agent/mu): 72.6%
- Disease Index Prevention Effect % Rust (rust [23]; Tebuconazole 15 g ai. agent/mu): 78.3%
- Disease Index Prevention Effect % Rust (rust [23]; Tebuconazole 21 g ai. agent/mu): 86.1%
- Disease Index Prevention Effect % Head Blight (wheat scab [24]; [33]): 12.9%
- Disease Index Prevention Effect % Head Blight (wheat scab [24]; [34]): 25.6%
- Disease Index Prevention Effect % Head Blight (wheat scab [24]; [35]): 42.5%
- Disease Index Prevention Effect % Head Blight (wheat scab [24]; [36]): 56.7%
- Disease Index Prevention Effect % Head Blight (wheat scab [24]; [37]): 61.5%
- Disease Index Prevention Effect % Head Blight (wheat scab [24]; [38]): 65.4%
- Disease Index Prevention Effect % Head Blight (wheat scab [24]; [39]): 68.4%
- Disease Index Prevention Effect % Head Blight (wheat scab [24]; [40]): 71.8%
- Disease Index Prevention Effect % Head Blight (wheat scab [24]; [41]): 73.9%
- Disease Index Prevention Effect % Head Blight (wheat scab [24]; [42]): 74.2%
- Disease Index Prevention Effect % Rust (rust [25]; [30]): 64.5%
- Disease Index Prevention Effect % Rust (rust [25]; [31]): 75.6%
- Disease Index Prevention Effect % Rust (rust [25]; [32]): 82.4%
- Disease Index Prevention Effect % Powdery Mildew (powdery mildew [26]): 72.61% and 76.19% and 66.32% and 39.46%
- Median Effective Concentration (EC50) for Growth Inhibition (Fusarium asiaticum; F.a carbendazim-resistant strains): 0.116 µg/mL
- Median Effective Concentration (EC50) for Growth Inhibition (Fusarium asiaticum; F.a phenamacril-resistant strains): 0.111 µg/mL
- Median Effective Concentration (EC50) for Growth Inhibition (Fusarium asiaticum; F.a sensitive strains): 0.102 µg/mL
- Average Fungal Colony Diameter F.a (Fusarium asiaticum; Tebuconazole 0.02 μg/mL): 43 mm
- Growth Inhibition Rate F.a (Fusarium asiaticum; Tebuconazole 0.02 μg/mL): 32.9%
- Average Fungal Colony Diameter F.a (Fusarium asiaticum; Tebuconazole 0.078 μg/mL): 34 mm
- Growth Inhibition Rate F.a (Fusarium asiaticum; Tebuconazole 0.078 μg/mL): 48.8%
- Average Fungal Colony Diameter F.a (Fusarium asiaticum; Tebuconazole 0.3125 μg/mL): 22 mm
- Growth Inhibition Rate F.a (Fusarium asiaticum; Tebuconazole 0.3125 μg/mL): 70.8%
- Average Fungal Colony Diameter F.a (Fusarium asiaticum; Tebuconazole 5.0 μg/mL): 9 mm
- Growth Inhibition Rate F.a (Fusarium asiaticum; Tebuconazole 5.0 μg/mL): 88.0%
- Disease Index Prevention Effect % Powdery Mildew (powdery mildew [27]): 96.2%
